Results on 2 compounds are retold here after patent US12551495B2, “Phytoecdysones and derivatives thereof for use in treating disordered respiratory function on viral infection” (priority 2020, dated 2026).

Experiment [1] has as its system mouse model of acute lung injury (ALI). To be noted: Xia et al. 2016, Song et al. 2019; cited from earlier work.
A further experiment deals with T1, Mas receptor (Homo sapiens, UniProt P04201).
T1 sequence (P04201 1-325): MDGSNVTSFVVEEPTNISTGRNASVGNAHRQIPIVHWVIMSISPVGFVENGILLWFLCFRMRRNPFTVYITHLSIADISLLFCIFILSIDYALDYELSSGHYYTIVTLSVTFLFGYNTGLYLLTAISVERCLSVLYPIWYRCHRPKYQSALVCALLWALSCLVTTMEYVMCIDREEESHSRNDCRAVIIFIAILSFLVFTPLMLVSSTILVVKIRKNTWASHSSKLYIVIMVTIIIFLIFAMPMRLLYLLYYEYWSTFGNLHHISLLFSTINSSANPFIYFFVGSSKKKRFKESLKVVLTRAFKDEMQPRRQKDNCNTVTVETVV
To be noted: Dilda et al. 2019; cited from earlier work.

Experiment [2] has as its system hypertensive type SH (spontaneously hypertensive) rats. Briefly: Mean arterial pressure by telemetry in spontaneously hypertensive rats, single oral administration. The experiment is classed as in vivo, rat. To be noted: Enalapril 50 mg/kg. As to the method:
The effects of BIO101 alone were evaluated after a single oral administration. Six SH rats were used in crossover treatments with an elimination period of a minimum of 72 hours between treatments. Prior to the treatment, the animals were equipped with telemetry instruments for measuring arterial pressure. For the experiment described in FIG. 2A the animals received the following treatments: vehicle, either BIO101 at 5 mg/kg, or BIO101 at 50 mg/kg, or Enalapril at 50 mg/kg.
The inventors tested the phytoecdysones and more particularly BIO101 on the mean arterial pressure by telemetry, in hypertensive animals after oral administration at the doses of 5 and 50 mg/kg. The study relates to hypertensive type SH (spontaneously hypertensive) rats.
BIO101 therefore has no anti-hypertensive effect.

In the case of `CC(C)(O)CC[C@@H](O)[C@](C)(O)[C@H]1CC[C@@]2(O)C3=CC(=O)[C@@H]4C[C@@H](O)[C@@H](O)C[C@]4(C)[C@H]3CC[C@]12C` [20-hydroxyecdysone], in experiment [1], the “anti-inflammatory cytokines (IL-4, IL-10)” value is on record as “increased”; the “lung injuries (histological examination)” value is “reduction in lung injuries”; the “plasmatic inflammatory cytokines (TNF-α, IL-2, IL-6, IL-8)” value is “reduced”. In addition, the “activity on Mas receptor” value at Mas receptor is listed as “activates”.

For the compound `CCOC(=O)[C@H](CCc1ccccc1)N[C@@H](C)C(=O)N1CCC[C@H]1C(=O)O` [Enalapril], in experiment [2], the “anti-hypertensive activity (mean arterial pressure)” value is “has an anti-hypertensive activity”.
